Measured values: patent publication US20250034201A1, “PRODRUGS OF GANAXOLONE” (priority 2022, published 2025)
Like-named read-outs stand apart in the source and are kept apart here.

Assay: in vitro
Format: in vitro ADME, human
Protocol: For several compounds only human liver microsomal stability was tested. […] The microsomal assays were carried out with and without the addition of NADPH at a final concentration of 1 mM. For negative control samples, NADPH reagent was not added. […] Note that compounds undergo only Phase I metabolism in liver microsomes.

[1] = human liver microsomes 0.5 mg/mL, with NADPH, compound 0.5 μM, 37° C., read-out: Human Liver Microsomal Stability t1/2
[2] = human liver microsomes 0.5 mg/mL, with NADPH, compound 0.5 μM, read-out: Human Liver Microsomal Stability CLint (uL/min/mg liver) (converted)
[3] = human liver microsomes, no NADPH, compound 0.5 μM

Structure (SMILES): CC(=O)[C@H]1CC[C@H]2[C@@H]3CC[C@H]4C[C@](C)(OC(=O)CCC(=O)OCCN(C)C)CC[C@]4(C)[C@H]3CC[C@]12C [Compound 409]
- Comments: production of GNX (ganaxolone) in human liver microsomes (human liver microsomes): In human small amount of GNX produced
- half-life (human, microsomes): 12.8 min
- microsomal CLint (human, microsomes): 108 µL/min/mg
- Human Liver Microsomal Stability no NADPH, % remain 1 h (human, microsomes): 7%

Structure (SMILES): CC(=O)[C@H]1CC[C@H]2[C@@H]3CC[C@H]4C[C@](C)(OC(=O)CNC(C)(C)COC(=O)C(C)C)CC[C@]4(C)[C@H]3CC[C@]12C [Compound 135]
- half-life (human, microsomes): 3.6 min
- microsomal CLint (human, microsomes): 385 µL/min/mg
- Human Liver Microsomal Stability no NADPH, % remain 1 h (human, microsomes): 1.3%

Structure (SMILES): CC(=O)[C@H]1CC[C@H]2[C@@H]3CC[C@H]4C[C@](C)(OC(=O)COC(=O)CN(C)C)CC[C@]4(C)[C@H]3CC[C@]12C [Compound 202]
- half-life [1]: 2.62 min
- microsomal CLint [2]: 529 µL/min/mg
- Human Liver Microsomal Stability no NADPH, % remain 1 h [3]: 1.85%

Structure (SMILES): CC(=O)[C@H]1CC[C@H]2[C@@H]3CC[C@H]4C[C@](C)(OC(=O)CSCCOC(=O)CN5CCOCC5)CC[C@]4(C)[C@H]3CC[C@]12C [Compound 303]
- Comments: production of GNX (ganaxolone) in human liver microsomes (human liver microsomes): In human GNX not produced
- half-life [1]: 2.48 min
- microsomal CLint [2]: 599 µL/min/mg
- Human Liver Microsomal Stability no NADPH, % remain 1 h [3]: 90%

Structure (SMILES): CNC(C)(C)C(=O)OCC(=O)O[C@]1(C)CC[C@@]2(C)[C@@H](CC[C@@H]3[C@@H]2CC[C@]2(C)[C@@H](C(C)=O)CC[C@@H]32)C1 [Compound 232]
- half-life [1]: 13.5 min
- microsomal CLint [2]: 103 µL/min/mg
- Human Liver Microsomal Stability no NADPH, % remain 1 h [3]: 27%

Structure (SMILES): CC(=O)[C@H]1CC[C@H]2[C@@H]3CC[C@H]4C[C@](C)(OC(=O)COC(=O)C(C)(C)OC(=O)CN(C)C)CC[C@]4(C)[C@H]3CC[C@]12C [Compound 227]
- Comments: production of GNX (ganaxolone) in human liver microsomes: In human no GNX produced
- half-life (human, microsomes): 23.9 min
- microsomal CLint (human, microsomes): 58.1 µL/min/mg
- Human Liver Microsomal Stability no NADPH, % remain 1 h (human, microsomes): 71%

Structure (SMILES): CC(=O)[C@H]1CC[C@H]2[C@@H]3CC[C@H]4C[C@](C)(OC(=O)CSC(=N)N)CC[C@]4(C)[C@H]3CC[C@]12C [Compound 304]
- Comments: production of GNX (ganaxolone) in human liver microsomes (human liver microsomes): In human small amount of GNX produced
- half-life [1]: 173 min
- microsomal CLint [2]: 8.03 µL/min/mg
- Human Liver Microsomal Stability no NADPH, % remain 1 h [3]: 83.8%

Structure (SMILES): CC(=O)[C@H]1CC[C@H]2[C@@H]3CC[C@H]4C[C@](C)(OC(=O)COC(=O)C(C)(C)OC(=O)CN(CCCO)CCCO)CC[C@]4(C)[C@H]3CC[C@]12C [Compound 231]
- half-life [1]: 5.3 min
- microsomal CLint [2]: 261 µL/min/mg
- Human Liver Microsomal Stability no NADPH, % remain 1 h [3]: 98%

Structure (SMILES): CC(=O)[C@H]1CC[C@H]2[C@@H]3CC[C@H]4C[C@](C)(OC(=O)C5CC5C(=O)NCCN(C)C)CC[C@]4(C)[C@H]3CC[C@]12C (stereo partly drawn) [Compound 411]
- Comments: production of GNX (ganaxolone) in human liver microsomes (human liver microsomes): In human small amount of GNX produced
- half-life [1]: 444 min
- microsomal CLint [2]: 3.12 µL/min/mg
- Human Liver Microsomal Stability no NADPH, % remain 1 h [3]: 99%

Structure (SMILES): CC(=O)[C@H]1CC[C@H]2[C@@H]3CC[C@H]4C[C@](C)(OC(=O)COC(=O)[C@H](CC(C)C)NC(=O)[C@@H](N)CC(C)C)CC[C@]4(C)[C@H]3CC[C@]12C [Compound 215]
- half-life [1]: 257 min
- microsomal CLint [2]: 5.39 µL/min/mg
- Human Liver Microsomal Stability no NADPH, % remain 1 h [3]: 88%

Structure (SMILES): CC(=O)[C@H]1CC[C@H]2[C@@H]3CC[C@H]4C[C@](C)(OC(=O)CNC(=O)C(C)(C)O)CC[C@]4(C)[C@H]3CC[C@]12C [Compound 141]
- Comments: production of GNX (ganaxolone) in human liver microsomes (human liver microsomes): In human no GNX produced
- half-life (human, microsomes): 38.3 min
- microsomal CLint (human, microsomes): 36.2 µL/min/mg
- Human Liver Microsomal Stability no NADPH, % remain 1 h (human, microsomes): 99.7%

Structure (SMILES): CC(=O)[C@H]1CC[C@H]2[C@@H]3CC[C@H]4C[C@](C)(OC(=O)OCCN(C)C)CC[C@]4(C)[C@H]3CC[C@]12C [Compound 419]
- Comments: production of GNX (ganaxolone) in human liver microsomes (human liver microsomes): In human small amount of GNX produced
- half-life [1]: 39.5 min
- microsomal CLint [2]: 35.1 µL/min/mg
- Human Liver Microsomal Stability no NADPH, % remain 1 h [3]: 88%

Structure (SMILES): CC(=O)[C@H]1CC[C@H]2[C@@H]3CC[C@H]4C[C@](C)(OC(=O)CC[C@H](N)C(=O)O)CC[C@]4(C)[C@H]3CC[C@]12C [Compound 416]
- Comments: production of GNX (ganaxolone) in human liver microsomes (human liver microsomes): In human no GNX produced
- half-life [1]: 273 min
- microsomal CLint [2]: 5.08 µL/min/mg
- Human Liver Microsomal Stability no NADPH, % remain 1 h [3]: 99%

Structure (SMILES): COC(=O)CNCC(=O)O[C@]1(C)CC[C@@]2(C)[C@@H](CC[C@@H]3[C@@H]2CC[C@]2(C)[C@@H](C(C)=O)CC[C@@H]32)C1 [Compound 110]
- Comments: production of GNX (ganaxolone) in human liver microsomes (human liver microsomes): In human GNX not produced
- half-life [1]: 4.15 min
- microsomal CLint [2]: 344 µL/min/mg
- Human Liver Microsomal Stability no NADPH, % remain 1 h [3]: 1.5%

Structure (SMILES): CC(=O)[C@H]1CC[C@H]2[C@@H]3CC[C@H]4C[C@](C)(OC(=O)COC(=O)CNC(=O)[C@@H](N)C(C)C)CC[C@]4(C)[C@H]3CC[C@]12C [Compound 214]
- half-life [1]: 161 min
- microsomal CLint [2]: 8.6 µL/min/mg
- Human Liver Microsomal Stability no NADPH, % remain 1 h [3]: 79.5%

Structure (SMILES): CC(=O)[C@H]1CC[C@H]2[C@@H]3CC[C@H]4C[C@](C)(OC(=O)CSC(C)(C)C(=O)O)CC[C@]4(C)[C@H]3CC[C@]12C [Compound 305]
- Comments: production of GNX (ganaxolone) in human liver microsomes (human liver microsomes): In human small amount of GNX produced
- half-life [1]: 171 min
- microsomal CLint [2]: 8.12 µL/min/mg
- Human Liver Microsomal Stability no NADPH, % remain 1 h [3]: 98.8%

Structure (SMILES): CCOCCC(=O)OCC(=O)O[C@]1(C)CC[C@@]2(C)[C@@H](CC[C@@H]3[C@@H]2CC[C@]2(C)[C@@H](C(C)=O)CC[C@@H]32)C1 [Compound 203]
- half-life [1]: 2.24 min
- microsomal CLint [2]: 618 µL/min/mg
- Human Liver Microsomal Stability no NADPH, % remain 1 h [3]: 0.79%

Structure (SMILES): CC(=O)[C@H]1CC[C@H]2[C@@H]3CC[C@H]4C[C@](C)(OC(=O)COC(=O)[C@@H](C)N5CCOCC5)CC[C@]4(C)[C@H]3CC[C@]12C [Compound 212]
- Comments: production of GNX (ganaxolone) in human liver microsomes (human liver microsomes): In human small amount of GNX produced
- half-life (human, microsomes): 14.3 min
- microsomal CLint (human, microsomes): 96.9 µL/min/mg
- Human Liver Microsomal Stability no NADPH, % remain 1 h (human, microsomes): 99%

Structure (SMILES): CC(=O)[C@H]1CC[C@H]2[C@@H]3CC[C@H]4C[C@](C)(OC(=O)CN(CCO)CCO)CC[C@]4(C)[C@H]3CC[C@]12C [Compound 142]
- half-life (human, microsomes): 32.3 min
- microsomal CLint (human, microsomes): 42.9 µL/min/mg
- Human Liver Microsomal Stability no NADPH, % remain 1 h (human, microsomes): 99%

Structure (SMILES): CC(=O)OCCCN(CCCOC(C)=O)CC(=O)OC(C)(C)C(=O)OCC(=O)O[C@]1(C)CC[C@@]2(C)[C@@H](CC[C@@H]3[C@@H]2CC[C@]2(C)[C@@H](C(C)=O)CC[C@@H]32)C1 [Compound 237]
- half-life (human, microsomes): 5.18 min
- microsomal CLint (human, microsomes): 267 µL/min/mg
- Human Liver Microsomal Stability no NADPH, % remain 1 h (human, microsomes): <1%

Structure (SMILES): CC(=O)[C@H]1CC[C@H]2[C@@H]3CC[C@H]4C[C@](C)(OC(=O)CCCN)CC[C@]4(C)[C@H]3CC[C@]12C [Compound 417]
- Comments: production of GNX (ganaxolone) in human liver microsomes (human liver microsomes): In human no GNX produced
- half-life [1]: 494 min
- microsomal CLint [2]: 2.81 µL/min/mg
- Human Liver Microsomal Stability no NADPH, % remain 1 h [3]: 99%
